# In patent US20220175729A1, “PHARMACEUTICAL USE OF CHLOROPHYLLIDE FOR CANCER THERAPY” (I-SHOU UNIVERSITY, priority 2020, published 2022):
# Tests used:
# MCF7 breast cancer cells [1] = details: FIG. 4 comparison, MTT, 0 to 200 μg/mL
# [2] = DPPH free radical scavenging assay; format: biochemical
# Description: The DPPH assay was used to evaluate the free radical-scavenging of chlorophyllide. Briefly, DPPH (8 mg) was dissolved in methanol (100 mL) to obtain a stock solution of 80 μg/mL. Then, 2.95 mL of the working solution was mixed with 50 μL of sample. After incubation in a dark at room temperature for 20 min, the absorbance was measured at 517 nm. The DPPH scavenging effect (%) was determined using the following formula: […]
# where Ac was the absorbance of the blank control, Ai was the absorbance in the presence of the samples, and Aj was the absorbance of the samples alone. Vitamin B2 was used as a reference standard compound.
# MCF7 breast cancer cells [3] = assay: Target gene expression by RT-PCR, MCF7; format: cell-based, human; details: MCF7 treated with chlorophyllide
# Source text: (§1) Then, among the 50 candidate genes, CCR1, STIM2, ETNK1, RAP2B, and TOP2A were used as target genes in real-time polymerase chain reaction (RT-PCR).
# [4] = tested on: MCF7 / MDA-MB-231 breast cancer cells; assay: Log2 fold change of target genes (Table 5, cell line and method not stated); format: cell-based, human
# Description: The gene expression profiles of the MCF7 breast cancer cells treated with chlorophyllide or MDA-MB-231 breast cancer cells treated with chlorophyllide and the corresponding untreated cells were analyzed by using next generation sequencing (NGS).
# as §1
# [5] = tested on: MDA-MB-231 breast cancer cells; assay: Target gene expression by RT-PCR, MDA-MB-231; format: cell-based, human; details: MDA-MB-231 treated with chlorophyllide
# Source text: as §1
compound,measurement,setting,value
chlorophyllin,IC50,MCF7 breast cancer cells [1],218.34 mg/L
same,DPPH scavenging rate,[2]; 100 μg/mL,25.68%
same,DPPH scavenging rate,[2]; 200 μg/mL,30.58%
same,DPPH scavenging rate,[2]; 400 μg/mL,45.34%
chlorophyllide,"gene expression level by RT-PCR, CCR1",MCF7 breast cancer cells [3]; gene CCR1,6.798
same,"gene expression level by RT-PCR, ETNK1",MCF7 breast cancer cells [3]; gene ETNK1,1.987
same,"gene expression level by RT-PCR, MAGI1",MCF7 breast cancer cells [3]; gene MAGI1,3.126
same,"gene expression level by RT-PCR, NLRC5",MCF7 breast cancer cells [3]; gene NLRC5,0.684
same,"gene expression level by RT-PCR, PKN1",MCF7 breast cancer cells [3]; gene PKN1,1.167
same,"gene expression level by RT-PCR, RAP2B",MCF7 breast cancer cells [3]; gene RAP2B,0.5882
same,"gene expression level by RT-PCR, SLC7A7",MCF7 breast cancer cells [3]; gene SLC7A7,0.3107
same,"gene expression level by RT-PCR, STIM2",MCF7 breast cancer cells [3]; gene STIM2,6.125
same,"gene expression level by RT-PCR, TOP2A",MCF7 breast cancer cells [3]; gene TOP2A,1.574
same,"Log2 fold change, CCR1",[4]; gene CCR1,5.954
same,"Log2 fold change, ETNK1",[4]; gene ETNK1,2.181
same,"Log2 fold change, RAP2B",[4]; gene RAP2B,2.375
same,"Log2 fold change, STIM2",[4]; gene STIM2,2.783
same,DPPH scavenging rate,[2]; 100 μg/mL,31.01%
same,DPPH scavenging rate,[2]; 200 μg/mL,26.92%
same,DPPH scavenging rate,[2]; 400 μg/mL,26.09%
same,"gene expression level by RT-PCR, CCR1",[5]; gene CCR1,10.079
same,"gene expression level by RT-PCR, ETNK1",[5]; gene ETNK1,5.954
same,"gene expression level by RT-PCR, MAGI1",[5]; gene MAGI1,1.3977
same,"gene expression level by RT-PCR, NLRC5",[5]; gene NLRC5,5.527
same,"gene expression level by RT-PCR, PKN1",[5]; gene PKN1,0.5819
same,"gene expression level by RT-PCR, RAP2B",[5]; gene RAP2B,3.694
same,"gene expression level by RT-PCR, SLC7A7",[5]; gene SLC7A7,1.159
same,"gene expression level by RT-PCR, STIM2",[5]; gene STIM2,3.5088
same,"gene expression level by RT-PCR, TOP2A",[5]; gene TOP2A,11.02
Cc1cc2nc3c(=O)[nH]c(=O)nc-3n(C[C@H](O)[C@H](O)[C@H](O)CO)c2cc1C [vitamin B2],DPPH scavenging rate,[2]; 100 μg/mL,28.05%
chlorophyll,IC50,MCF7 breast cancer cells [1],197.31 mg/L
same,DPPH scavenging rate,[2]; 100 μg/mL,52.95%
same,DPPH scavenging rate,[2]; 200 μg/mL,65.11%
same,DPPH scavenging rate,[2]; 400 μg/mL,88.62%
same,EC50 (concentration that can inhibit 50% of DPPH free radicals),[2]; by extrapolation from regression analysis,62.14 mg/L
